Biological target: Thromboxane A2 receptor (Cavia porcellus)
Assay: In vitro concentration that reduced specific binding of [3H][…] to guinea pig platelet receptor, Thromboxane A2 receptor by 50%

IC50: 31 nM
SMILES: CCCCC[C@H](O)/C=C/[C@@H]1[C@@H](C/C=C\CCCC(=O)O)[C@H]2CO[C@@H]1C2 [(Z)-7-((1R,4S,5S,6R)-6-((S,E)-3-hydroxyoct-1-enyl)-2-oxabicyclo[2.2.1]heptan-5-yl)hept-5-enoic acid]

From BindingDB's records for doi:10.1021/jm00129a030 (Takeda Chemical Industries, 1989)
